# Results: PMC7116804 (Green chemistry : an international journal and green …, 2019)
# Molecular target: Aa-ADH (Aromatoleum aromaticum, UniProt Q5P5I4)
# Assay: oxidation of diol […] isomer mixture, product analysis
# Type: biochemical
# Settings: NAD+ 1 mM recycled by NOX; Tris-HCl pH 7.5, 30 °C, 24 h
# Sequence of Aa-ADH (Q5P5I4 2-249): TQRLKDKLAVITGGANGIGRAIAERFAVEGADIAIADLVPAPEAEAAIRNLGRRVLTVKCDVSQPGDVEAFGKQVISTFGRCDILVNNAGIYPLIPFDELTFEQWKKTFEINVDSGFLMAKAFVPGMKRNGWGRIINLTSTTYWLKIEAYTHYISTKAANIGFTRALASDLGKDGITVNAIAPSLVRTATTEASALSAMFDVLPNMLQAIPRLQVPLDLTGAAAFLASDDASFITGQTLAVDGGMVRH
row,Structure (SMILES),"oxidation of diol 3 isomer mixture, product analysis"
1,"C[C@@H](O)[C@H](O)c1ccccc1 [1R,2R-3]","Aa-ADH oxidized 1R,2R-3, 1S,2S-3 and 1R,2S-3"
2,"C[C@H](O)[C@@H](O)c1ccccc1 [1S,2S-3]","Aa-ADH oxidized 1R,2R-3, 1S,2S-3 and 1R,2S-3"
